Assay results as given in patent US10100079B2, “Progesterone-cationic lipid hybrid as anticancer agent and the process of synthesis thereof” (Council of Scientific & Industrial Research, priority 2016, dated 2018).

Columns and labels:
T47D = test: Apoptosis by flow cytometry (annexin V-FITC/PI), T47D; format: cell-based, human; details: 10 μM, 36 h
Procedure: (§1) Apoptosis study was performed by flow cytometry using annexin V-FITC-labeled apoptosis detection kit (Sigma) following manufacturer's protocol. Cells (□×□□^□ cells/well) were seeded in six-well plates and incubate for 16-18 h. After 16-18 h, cells were either kept untreated or treated with 10 μM compound 1 and 10 μM 6c for 36 h. Next, cells were trypsinized and washed with PBS. Then the cells were re-suspended in 1× binding buffer at a density of 1×10^6 cells/ml and stained simultaneously with FITC-labeled annexin V (25 ng/ml) and propidium iodide (50 ng/ml). After 15 min incubation, cells were analyzed using a flow cytometer (FACS Canto II, Becton-Dickinson, San Jose, Calif., USA), and data were analyzed with FCS Express V3 software. Minimum of 10000 events were gated per sample.

CHO = test: Apoptosis by flow cytometry (annexin V-FITC/PI), CHO; format: cell-based, Chinese hamster; details: 10 μM, 36 h
Procedure: as §1

[1] = tested on: apoptosis related protein in B16F10 cells; test: Western blot of B16F10 cell lysates: apoptosis related protein (FIG. 4A); format: cell-based, murine; details: B16F10, 10 μM, 36 h
Procedure: (§2) For in vitro cell lysate preparation, B16F10 cells were either treated with compound 1 (10 μM), 6c (10 μM) or kept untreated for 36 h continuously. After that cells were washed with cold PBS for two times, and lysed by incubating for 30 min on ice with ice-cold RIPA lysis buffer (50 mM Tris [pH 7.5], 1% NP-40, 150 mM NaCl, 0.1% sodium dodecyl sulfate [SDS], 0.5% sodium deoxycholate) containing 1% proteinase inhibitor cocktails (PIC) (Cell Signaling Technology). Following 30 min of incubation cells were centrifuged at 14,000 rpm at 4° C. for 15 minutes, supernatant was collected, and Protein concentration was measured by using BCA assay a kit (thermo scientific). For in vivo whole cell lysate, after completion of the in vivo experiment one C57BL/6J mice with representative tumor size from each group was sacrificed and tumor was collected, lysed by ice-cold RIPA buffer with 1% PIC, whole cell lysate was prepared following the same steps as mentioned above. Respective cell lysates were run in SDS-PAGE gel (8%-15%) and then the bands were transferred to polyvinylidene fluoride (PVDF) membrane. Membranes were then first incubated with respective primary antibodies and then with alkaline phosphates conjugated secondary antibody (Goat-anti-rabbit and Goat-anti-mouse). Immunodetection was performed with BCIP/NBT substrate (Sigma-Aldrich).
(§3) Cytochrome-C (4272S), BAX (2772S), Bcl-2 (2876S), Cassepase-3 (9665S), β-actin (8457S), PI3K-p110α (4249S), PI3K-p85 (4257S), AKT (272S), p-AKT (4060S), PTEN (9552S), p-mdm2 (3521S), p53 (2524S), GAPDH (5174S) were purchased from Cell Signaling Technology; Casepase-9 (PA5-16358) was purchased from Pierce; mdm2 (ab38618) was purchased from Abcam; secondary antibodies mouse anti-rabbit IgG-PE (sc-3753) was purchased from Santa Cruz Biotechnology; Goat anti-mouse IgG Alkaline Phosphatase (DC05L) and goat anti-rabbit IgG Alkaline Phosphatase (DC06L) were purchased from Calbiochem.

[2] = tested on: PI3K/AKT pathway involving protein in B16F10 cells; test: Western blot of B16F10 cell lysates: PI3K/AKT pathway involving protein (FIG. 4B); format: cell-based, murine; details: B16F10, 10 μM, 36 h
Procedure: as §2, §3

B16F10 tumor = test: In vivo tumor study, B16F10 melanoma model; set-up: species or system C57BL6/J mice; details: 15 mg/Kg i.p., 5 injections
Procedure: 6-8 weeks old female C57BL6/J mice, obtained from CCMB (Hyderabad, India), were subcutaneously inoculated with 2.5×10^5 B16F10 cells in the lower left abdomen. Thirteen days after B16F10 cell inoculation, mice were grouped as per the treatment where each group contained 5 mice. The groups were as follows (i) untreated group, (ii) treated with progesterone (compound 1) (6 mg/Kg) and (iii) 6c (15 mg/Kg). Each compound suspended in PBS containing 10% DMSO and injected intraperitoneally to the respective mice. Five injections were given with a gap of 2 days. The tumor sizes were measured in volume (mm^3) and calculated using the formula (0.5ab^2), where ‘a’ represents the longest dimension and ‘b’ is the shortest dimension of the tumors. Experiment was terminated when the average tumor volume of the untreated group reached ˜4000 mm^3. All animal work was done following the protocols approved by Institutional Animal Ethical Committee of CSIR-IICT, India.

[3] = tested on: B16F10 tumor lysate proteins; test: Western blot analysis with B16F10 tumor lysates (FIG. 5B); set-up: species or system C57BL/6J mice; details: B16F10 tumor lysate after in vivo treatment
Procedure: as §2, with “(Sigma-Aldrich). […]” for “(Sigma-Aldrich).”

B16F10 tumor sections = test: TUNEL assay with VE-cadherin staining on tumor sections; format: in vivo, mice
Procedure: After completion of the in vivo experiment, one mouse from each group was sacrificed to check the apoptosis in tumor mass. First the tumors were frozen in Jung tissue medium (Leica Microsystem, Germany) followed by cryo-sectioning of 10 μm thin sections using Leica CM1850 cryostat (Germany). These were then fixed into 4% formalin for 15 min. TUNEL assay was carried out using Dead-End fluorometric apoptosis detection kit ([…]) following manufacturer's protocol. The same cryosections were washed with PBS and incubated with VE-cadherin mouse monoclonal antibody at 1:200 dilutions (Santa Cruz Biotech.) for 2 h at 4° C. to stain the blood vessel, followed by one hour incubation with goat anti-mouse IgG-PE (Santa Cruz Biotech.) secondary antibody; after that tissue sections were washed and observed under Nikon TE2000E microscope at 10× magnification.

## CCCCCCCCCC[N+](C)(CCCCCCCCCC)CCNC(=O)CCC(=O)O[C@@H](C)[C@H]1CCC2C3CCC4=CC(=O)CC[C@]4(C)C3CC[C@@]21C (stereo partly drawn) [Compound 6c, N-decyl-N-(2-(4-((1S)-1-((10R,13S,17S)-10,13-dimethyl-3-oxo-2,3,6,7,8,9,10,11,12,13,14, 15,16,17-tetradecahydro-1H-cyclopenta[a]phenanthren-17-yl)ethoxy)-4-oxobutanamido)ethyl)-N-methyldecan-1-aminium chloride]
T47D
  apoptotic cell: 73%
CHO
  apoptosis in normal cell: largely remains unaffected
[1]
  BAX/Bcl-2 ratio compared to untreated group: ~4 fold
  caspase 3 expression: increase in level
  caspase 9: formation of active caspase 9
  cytochrome C expression: elevated expression
[2]
  PTEN protein expression: elevated expression
  expression of catalytic and regulatory subunit of PI3K protein: decrease in the expression
  p53 expression level: elevated the expression level
  p-AKT level compared to PR treated group: significant reduction
  pMdm2 level: reduced
B16F10 tumor; B16F10 in C57BL6/J mice
  tumor growth and aggression versus UT and progesterone-treated groups: significant inhibition
B16F10 tumor; day 25 from tumor cell inoculation
  tumor size of UT group compared to treated group: ~4 times
[3]
  caspase 3 in tumor lysate: increase
  p53 expression level in tumor lysate: significant increase
B16F10 tumor sections; TUNEL / VE-cadherin merge, tumor sections
  extent of apoptosis induced in the blood vessel: very high
B16F10 tumor sections; TUNEL, tumor sections of treated mice
  number of apoptotic cells in tumor compared to untreated or PR: significantly higher
